Laboratory results published in patent publication US11505797B2, “Gene knockout of variant NRF2 for treatment of cancer” (Christiana Care Health Services, Inc., priority 2019, dated 2022).
Entries after “also recorded” stand apart in the source; their conditions may differ.

What was measured:
[1] = test system: R34G-mutated NRF2 sequence; assay: In vitro cleavage reaction, R34G-mutated NRF2 amplicons; assay type: biochemical, human; conditions: A549 R34G-6 amplicon, 0.5-5 pmol RNP, gel electrophoresis
Experimental: (§1) As proof of concept, an in vitro cleavage reaction was conducted to assess the level of discrimination using the R34G guide RNA in a ribonucleoprotein complex (RNP). The in vitro cleavage reaction encompasses complexing target specific-guide RNA with Cas9 protein to form a ribonucleoprotein (RNP). The RNP is incubated with DNA of interest (100 ng) and the reaction and cleavage products are visualized by gel electrophoresis. For this experiment, wildtype and R34G-mutated NRF2 PCR products (901 bp) from an NRF2 expression plasmid (FIG. 21) were incubated with R34G-targeting RNP complex (1 μM) and cleavage products were visualized by gel electrophoresis, shown in FIG. 22.
Once the sequences were verified, genomic DNA from each cell line was used to amplify exon 2 of NRF2. The PCR products (530 bp) from each cell line were then used in in vitro cleavage reactions under various parameters to test specificity and fidelity of the R34G-targeting RNP. For these cleavage reactions, expected cleavage products would appear at 385 and 145 bp as indicated by the red lines along the ladder, with uncut product appearing at 530 bp. FIG. 24 depicts the gel image from an in vitro cleavage reaction using wildtype NRF2 sequence from parental A549 cells and R34G-mutated NRF2 sequence from the A549 R34G-6 cells. An increasing concentration (0.5-5 pmol) of R34G-targeting RNP was used to determine the threshold and fidelity of the sequence. […] Uncut product (top band, 530 bp) can still be seen in lanes 7-10, which corresponds to the heterozygosity of the R34G mutation in the A549 R34G-6 cell line. Therefore, the wildtype NRF2 allele in the A549 R34G-6 cell line acts as an internal negative control.
Another in vitro cleavage reaction was conducted to assess the cleavage efficiency of the wildtype NRF2 sequence to ensure the R34G-targeting RNP was, in fact, not cleaving the wildtype NRF2 sequence because of the lack of the R34G mutation. A guide RNA with a cut site 29 bp upstream (labeled Neh2 RNP) from the R34G RNP cut site was selected and used as a positive cleavage control. […] Lanes 1-8 were reactions using wildtype NRF2 sequence while lanes 9-16 were reactions using R34G-mutated NRF2 sequence. In lanes 2-4 and 10-12, PCR products were incubated with increasing concentrations (1, 3 & 5 pmol) of RNP targeting the beginning of exon 2 (Neh2 RNP). The Neh2 guide RNA sequence is: 5′ […] 3′ (SEQ ID NO:13) which is a native CRISPR site and used as the positive control for cleavage for these reactions. […] In lanes 6-8 and 14-16, PCR products were incubated with increasing concentrations (1, 3 & 5 pmol) of R34G-targeting RNP. […] This further reinforces the specificity of the R34G-targeting RNP only recognizing the target DNA in the presence of the R34G mutation in exon 2 of NRF2. […]

wildtype NRF2 sequence = assay: In vitro cleavage reaction, wildtype NRF2 amplicons; assay type: biochemical, human; conditions: A549 or H1703 parental amplicons, 0.5-5 pmol RNP, gel electrophoresis
Experimental: as §1
Once the sequences were verified, genomic DNA from each cell line was used to amplify exon 2 of NRF2. The PCR products (530 bp) from each cell line were then used in in vitro cleavage reactions under various parameters to test specificity and fidelity of the R34G-targeting RNP. For these cleavage reactions, expected cleavage products would appear at 385 and 145 bp as indicated by the red lines along the ladder, with uncut product appearing at 530 bp. FIG. 24 depicts the gel image from an in vitro cleavage reaction using wildtype NRF2 sequence from parental A549 cells and R34G-mutated NRF2 sequence from the A549 R34G-6 cells. […]

wild type A549 tumors = assay: Xenograft mouse model, wild type A549 tumors; assay type: in vivo, athymic nude mice; conditions: for tumor growth over 16 days: tail vein day 0, 3, 6, 9, cisplatin 2 mg/kg, cisplatin 5 mg/kg + vinorelbine 5 mg/kg, carboplatin 25 mg/kg
Experimental: (§2) The human xenograft model was established using methodology reported previously. Kellar et al., Biomed Res. Int. […] Female athymic nude mice (Envigo, 5-6 weeks old) were used in this study. Approximately 5×10^6 cells (wild type A549 or homozygous knockout (clonal expansion 2-11)) suspended in PBS with 20% Matrigel were injected subcutaneously into right flank of each mouse. Tumor volume was measured three times a week with a digital caliper once palpable, and calculated using the formula, tumor size=ab^2/2, where ‘a’ is the larger and ‘b’ is the smaller of the two dimensions. When tumors grew up to a mean volume of around 100 mm^3, A549 tumor bearing mice or A549-2-11 tumor bearing mice were randomly divided into 7 groups (N=5 for each group) respectively and subject to dose/regimen-finding study. […] Tumor volume and body weight was closely monitored over time. After 16 days, the animals were sacrificed, with tumor removed, weighed and processed for molecular analysis. Mice were euthanized. The data were expressed as mean±SD. Student's t-test and one-way or two-way ANOVA was used to assess the significance of difference. A P value<0.05 was considered significant.
(§3) A549 xenografts were resected on day 16, snap frozen in liquid nitrogen and stored in −80° C. until usage. All immunofluorescence staining was performed as previously described. Wang et al., Investig. Opthalmology Vis. […] Briefly, tumors were embedded in Optimum Cutting Temperature (Tissue Tek, Torrance, Calif., USA) and 16-μm-thick sections were obtained with a Leica CM3050 cryostat (Leica Microsystems, Buffalo Grove, Ill., USA), and mounted on slides. Slides were fixed and incubated with blocking buffer for 1 hour at room temperature. […] Sections were washed in PBS, then mounted with SlowFade Gold antifade mountant with DAPI (Invitrogen, Carlsbad, Calif., USA). Images were obtained with a Zeiss Observer.Z1 microscope (Carl Zeiss, Inc., Gottingen, Germany). The TUNEL assay was conducted with In Situ Cell Death Detection Kit, Fluorescein (Roche, Base, Switzerland), following the manufacturer's instructions. […]

[2] = test system: NRF2 knockout A549 cells (2-11); assay: MTS cell proliferation assay, NRF2 knockout A549 cells (2-11); assay type: cell-based, human
Experimental: (§4) Cell viability was evaluated using the CellTiter 96 Aqueous Non-Radioactive Cell Proliferation Assay (Promega, Madison, Wis.). A549 cell lines were plated at 2×10^3 cells per well and allowed to culture for 24 hours. The cell media was then aspirated, the cells washed with PBS, then exposed to the MTS reagent for 3 hours. After 3 hours of MTS bio-reduction by proliferating cells, the formazan product's absorbance was measured using a 450 nm filter on an Infinite 2000 PRO microplate reader (Tecan, Mannadorf, Switzerland). Cell viability after drug exposure was evaluated using the CellTiter 96 Aqueous Non-Radioactive Cell Proliferation Assay. A549 cell lines were plated at 2×10^3 cells per well and allowed to culture for 24 hours. The cells were then treated with cisplatin, carboplatin, or a combination of cisplatin and vinorelbine for three days. The cell media was then aspirated, the cells washed with PBS, then exposed to the MTS reagent for 3 hours. After 3 hours of MTS bio-reduction by proliferating cells, the formazan product's absorbance was measured using a 450 nm filter on an Infinite 2000 PRO microplate reader.

wild type A549 cells = assay: MTS cell proliferation assay, wild type A549 cells; assay type: cell-based, human
Experimental: as §4

[3] = test system: A549 Neh2 KO clones 1-17, 2-16, 2-23; assay: MTS assay of A549 Neh2 KO clones treated with cisplatin; assay type: cell-based, human; conditions: 1, 2, 3, 5, 10 uM cisplatin
Description: The lung adenocarcinoma-derived cell line, A549, was used transfected with CRISPR/Cas9 designed to target exon 2 of NRF2 to create individual clones with random indel patterns. A total of three clones, 1-17, 2-16, and 2-23, were isolated and expanded. All three clones were collected for genomic DNA isolation and sanger sequencing to confirm the indels present. The DECODR program was used to deconvolute the sanger sequencing of each clone. The A549 cell line is polyploid and therefore, these clones contain 3 alleles of the NRF2 gene. Clone 1-17 contains −2, −2, −13 base pair deletions. Clone 2-16 contains a −1 base pair deletion across all alleles. Clone 2-23 contains two wildtype alleles and a −2 base pair deletion. A cell proliferation assay was used to assess the functionality of NRF2 after CRISPR targeting in combination with cisplatin treatment. […] Absorbance values for each clone and concentration were normalized by dividing the absorbance by the absorbance of each control well (0 μM). Normalized values for each clone at each concentration were then averaged across and standard error of the mean was calculated. […]
Several A549 NRF2 knockout clones were created and used for dose curves with Cisplatin and Carboplatin (0-10 uM concentration). […] These genomic profiles were analyzed by TIDE and DECODR. […]

[4] = test system: NRF2 knockout A549 (2-11) tumors; assay: Xenograft mouse model, NRF2 knockout A549 (2-11) tumors; assay type: in vivo, athymic nude mice; conditions: cisplatin 2 mg/kg
Experimental: as §2, §3

| Compound | cleavage of R34G-mutated NRF2 amplicon (530 bp) [1] | cleavage of wildtype NRF2 amplicon (530 bp) (wildtype NRF2 sequence) | Ki67 staining of xenograft tumors (wild type A549 tumors; cisplatin 2 mg/kg versus saline, day 16) | tumor growth over 16 days (wild type A549 tumors) | tumor growth over 16 days (wild type A549 tumors; listed as Cisplatin) | cisplatin concentration with loss of proliferation ([2]; 2-11 knockout A549, 72 hours) [µM] | chemosensitivity (MTS cell proliferation) ([2]; 2-11 knockout A549, increasing dosages, 72 hours) | cisplatin concentration at which proliferation is adversely affected (wild type A549 cells; wild type A549, 72 hours) [µM] | chemosensitivity (MTS cell proliferation) (wild type A549 cells; wild type A549, increasing dosages, 72 hours) | sensitivity to cisplatin (MTS), clones 1-17 and 2-16 [3] | sensitivity to cisplatin (MTS), clone 2-23 ([3]; two wildtype alleles and -2 bp deletion) | Ki67 staining of xenograft tumors ([4]; day 16) | tumor growth over 16 days ([4]; tail vein day 0, 3, 6, 9, cisplatin 5 mg/kg + vinorelbine 5 mg/kg, carboplatin 25 mg/kg) |
| --- | --- | --- | --- | --- | --- | --- | --- | --- | --- | --- | --- | --- | --- |
| 5′ TGGATTTGATTGACATACTTTGG 3′ [Neh2 RNP] | can be seen in both wildtype and R34G-mutated NRF2 sequences | can be seen in both wildtype and R34G-mutated NRF2 sequences | – | – | – | – | – | – | – | – | – | – | – |
| N.N.[Cl][Pt][Cl] [cisplatin] | – | – | no difference in Ki67 levels | proliferate aggressively | not inhibited by the drug | ≥ 1 | heightened sensitivity | ≥ 5 | resistant to high dosages of Cisplatin | relatively the same trend of sensitivity | even higher resistance than the wildtype cells | substantially lower | proliferation of the implanted cells is arrested, and the tumor size is maintained at the same level; also recorded: smallest tumors; also recorded: significant reduction in tumor cell proliferation |
